Measured values as given in US10568834B2, “Delivery systems for propofol” (Yissum Research Development Company of the Hebrew …, priority 2015, dated 2020).

What was measured:
[1] = Self-diffusion NMR (SD-NMR); type: physicochemical; details: for Diffusion coefficient of EtOH / Diffusion coefficient of PEG400 / Diffusion coefficient of PG / Diffusion coefficient of Solutol / Diffusion coefficient of the Loaded specie: B9A loaded with 1 wt % of the specie
Experimental: In order to determine the structure of the oil droplets (or micelles) of the microemulsions, self-diffusion NMR analysis was carried out. SD-NMR is able to locate each component within the microemulsion via measurements of its diffusion coefficient.
NMR measurements were performed with a Bruker AVII 500 spectrometer equipped with GREAT 1/10 gradients, a 5 mm BBO and a 5 mm BBI probe, both with a z-gradient coil and with a maximum gradient strength of 0.509 and 0.544 T m^−1, respectively. Diffusion was measured using an asymmetric bipolar longitudinal eddy-current delay (bpLED) experiment, or and asymmetric bipolar stimulated echo (known as one-shot) experiment with convection compensation and an asymmetry factor of 20%, ramping the strongest gradient from 2% to 95% of maximum strength in 32 steps. The spectrum was processed with the Bruker TOPSPIN software. NMR spectra were recorded at 25±0.2° C. The components were identified by their chemical shift in 1H NMR.

[2] = Microemulsion formation/appearance with propofol-like species or another surfactant; type: physicochemical; details: B9A loaded with 1 wt % of the specie, FIGS. 5A-5D
Experimental: The relationship between the surfactant and the propofol with respect to binding in the microemulsion-composition was assessed by loading B9A with 1 wt % of species similar in their structure to propofol.

[3] = B6A microemulsion, Loaded (1 wt % propofol)
[4] = B9A microemulsion, Loaded (1 wt % propofol)
[5] = Formulation with Tween 60, Loaded
[6] = Formulation with Tween 60, Unloaded
[7] = Formulation with Tween 80, Loaded
[8] = Formulation with Tween 80, Unloaded

Compound	Diffusion coefficient of the component [1, 3]	Diffusion coefficient of the component [1, 4]	Diffusion coefficient of EtOH [1]	Diffusion coefficient of PEG400 [1]	Diffusion coefficient of PG [1]	Diffusion coefficient of Solutol [1]	Diffusion coefficient of the Loaded specie [1]	also measured
O [Water, water]	1.37 × 10^−9 m^2/sec	1.62 × 10^−9 m^2/sec						Diffusion coefficient of the component ([1]; B6A microemulsion, Unloaded): 1.76 × 10^−9 m^2/sec; Diffusion coefficient of the component ([1]; B9A microemulsion, Unloaded): 1.52 × 10^−9 m^2/sec; Diffusion coefficient of the component [1, 5]: 1.12 × 10^−9 m^2/sec; Diffusion coefficient of the component [1, 6]: 1.86 × 10^−9 m^2/sec; Diffusion coefficient of the component [1, 7]: 1.24 × 10^−9 m^2/sec; Diffusion coefficient of the component [1, 8]: 1.91 × 10^−9 m^2/sec
CCO [Ethanol, ethanol]	6.91 × 10^−10 m^2/sec	9.82 × 10^−10 m^2/sec						Diffusion coefficient of the component ([1]; B6A microemulsion, Unloaded): 8.83 × 10^−10 m^2/sec; Diffusion coefficient of the component ([1]; B9A microemulsion, Unloaded): 7.65 × 10^−10 m^2/sec
polysorbate 60 [Tween 60]								Diffusion coefficient of the component [1, 5]: 1.63 × 10^−11 m^2/sec; Diffusion coefficient of the component [1, 6]: 0.92 × 10^−11 m^2/sec
Cc1cc(C(C)(C)C)c(O)c(C(C)(C)C)c1 [BHT]								Appearance of the system loaded with the specie [2]: not completely transparent
COc1ccc(O)c(C(C)(C)C)c1 [drawing 4]			91.2 ×10^−11 m^2/sec	24.5 ×10^−11 m^2/sec	78.3 ×10^−11 m^2/sec	1.75 ×10^−11 m^2/sec	1.78 ×10^−11 m^2/sec	
CC(C)(C)c1cc(O)ccc1O [TBHQ]								Appearance of the system loaded with the specie [2]: classic milky emulsion
COc1ccc(O)c(C(C)(C)C)c1 [BHA]								Appearance of the system loaded with the specie [2]: not completely transparent
CC(C)c1cccc(C(C)C)c1O [Propofol, 2,6-diisopropyl phenol]	1.02 × 10^−11 m^2/sec	1.54 × 10^−11 m^2/sec	98.2 ×10^−11 m^2/sec	26.3 ×10^−11 m^2/sec	84.5 ×10^−11 m^2/sec	1.50 ×10^−11 m^2/sec	1.54 ×10^−11 m^2/sec	Diffusion coefficient of the component [1, 5]: 1.04 × 10^−11 m^2/sec; Diffusion coefficient of the component [1, 7]: 1.73 × 10^−11 m^2/sec
polysorbate 80 [Tween 80]								Diffusion coefficient of the component [1, 7]: 2.08 × 10^−11 m^2/sec; Diffusion coefficient of the component [1, 8]: 1.73 × 10^−11 m^2/sec
CC(C)c1ccc(O)c(C(C)C)c1 [2,4-isomer]								Appearance of the system loaded with the specie [2]: not completely transparent
CC(C)c1ccc(O)c(C(C)C)c1 [drawing 3]			96.6 ×10^−11 m^2/sec	26.3 ×10^−11 m^2/sec	73.6 ×10^−11 m^2/sec	1.63 ×10^−11 m^2/sec	1.75 ×10^−11 m^2/sec	
CC(O)CO (stereo not shown) [Propylene glycol, propylene glycol]	5.22 × 10^−10 m^2/sec	8.45 × 10^−10 m^2/sec						Diffusion coefficient of the component ([1]; B6A microemulsion, Unloaded): 6.68 × 10^−10 m^2/sec; Diffusion coefficient of the component ([1]; B9A microemulsion, Unloaded): 5.96 × 10^−10 m^2/sec; Diffusion coefficient of the component [1, 5]: 3.24 × 10^−10 m^2/sec; Diffusion coefficient of the component [1, 6]: 4.96 × 10^−10 m^2/sec; Diffusion coefficient of the component [1, 7]: 4.82 × 10^−10 m^2/sec; Diffusion coefficient of the component [1, 8]: 5.43 × 10^−10 m^2/sec
Cc1cc(C(C)(C)C)c(O)c(C(C)(C)C)c1 [drawing 5]			98.2 ×10^−11 m^2/sec	24.3 ×10^−11 m^2/sec	79.1 ×10^−11 m^2/sec	1.75 ×10^−11 m^2/sec	1.58 ×10^−11 m^2/sec	
polyethylene glycol 15-hydroxystearate [Solutol]	1.62 × 10^−11 m^2/sec	1.50 × 10^−11 m^2/sec						Diffusion coefficient of the component ([1]; B6A microemulsion, Unloaded): 1.45 × 10^−11 m^2/sec; Diffusion coefficient of the component ([1]; B9A microemulsion, Unloaded): 1.94 × 10^−11 m^2/sec
CC(C)c1cccc(C(C)C)c1N			94.6 ×10^−11 m^2/sec	26.2 ×10^−11 m^2/sec	44.8 ×10^−11 m^2/sec	1.76 ×10^−11 m^2/sec	2.15 ×10^−11 m^2/sec	
